The source of these data is publication PMC13197777, “Distinct 2-phenylimidazo[1,2-a]pyridine derivatives that inhibit breast cancer cell proliferation identified as AHR ligands” (iScience, 2026).

The target in one data set is T1, AHR (Homo sapiens, UniProt P35869).
T1 construct: endogenous in cells; host or cells: HAHLH (HeLa with XRE-luciferase reporter)
T1 sequence (P35869 11-848): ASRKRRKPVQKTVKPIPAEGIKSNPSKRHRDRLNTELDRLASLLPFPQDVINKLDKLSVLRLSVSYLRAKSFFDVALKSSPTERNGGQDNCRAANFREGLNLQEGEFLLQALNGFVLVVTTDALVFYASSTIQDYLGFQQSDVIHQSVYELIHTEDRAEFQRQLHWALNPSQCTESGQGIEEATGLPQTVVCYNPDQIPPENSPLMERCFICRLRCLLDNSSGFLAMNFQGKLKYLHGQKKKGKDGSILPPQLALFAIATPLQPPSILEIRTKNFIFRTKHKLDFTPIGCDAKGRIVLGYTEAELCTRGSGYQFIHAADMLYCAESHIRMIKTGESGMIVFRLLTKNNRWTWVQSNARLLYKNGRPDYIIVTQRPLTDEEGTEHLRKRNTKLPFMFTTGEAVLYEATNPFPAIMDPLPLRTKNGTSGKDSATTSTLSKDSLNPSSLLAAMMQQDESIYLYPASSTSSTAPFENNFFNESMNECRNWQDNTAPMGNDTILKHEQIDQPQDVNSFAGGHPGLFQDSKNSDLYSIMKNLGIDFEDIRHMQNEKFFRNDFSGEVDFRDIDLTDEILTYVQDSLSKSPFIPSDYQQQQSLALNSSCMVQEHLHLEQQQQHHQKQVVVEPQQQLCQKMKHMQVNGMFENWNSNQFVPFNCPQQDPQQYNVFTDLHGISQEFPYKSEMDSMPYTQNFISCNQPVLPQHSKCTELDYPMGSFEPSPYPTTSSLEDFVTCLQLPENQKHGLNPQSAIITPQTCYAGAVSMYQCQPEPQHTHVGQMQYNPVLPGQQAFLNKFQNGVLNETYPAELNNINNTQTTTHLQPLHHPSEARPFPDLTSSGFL
As to the kind of experiment: AHR luciferase reporter assay in HAHLH cells. It is filed as cell-based. The conditions noted are these: 8 h, % of maximal luciferase activity with dioxin 10 nM, read-out: EC50 AHR transactivation. From the text: To characterize the chemical induced AHR activity, we used the already established HAHLH reporter cell lines obtained by stably expression of HeLa cells with the dioxin-responsive gene XRE(TnGCGTG)3-tata-luciferase-Luc-hygromycin plasmid.[29] The reporter HELN hERα cell line was obtained by transfecting human HeLa cells with the ERE-responsive gene ERE-βGlobin-luciferase-Luc-neomycin and the pSG5-hERα-puromycin plasmids as previously described.[59] To determine the action of the chemical on AHR and hERα activity, cells were seeded at a density of 50,000 cells per well in 96-well white opaque tissue culture plates (Greiner CellStar) in 150 μL of Dulbecco’s Modified Eagle Medium: Nutrient Mixture F-12 (DMEM/F- 12) without phenol red and 1 g/L glucose and supplemented with 5% stripped fetal bovine serum, 100 units/mL of penicillin, 100 μg/mL of streptomycin (test medium). Twenty-four hours later, chemicals to be tested were added at 4x concentration in culture medium, and cells were incubated at 37 °C for 8 h (HAhLH cells) or 24 h (HELN hERα cells). At the end of the incubation period, culture medium was replaced with test medium containing 0.3 mM luciferin and luciferase activity was measured for 2 s in intact living cells using a MicroBeta Wallac luminometer (PerkinElmer). Tests were performed in quadruplicate at 4x concentration in the same medium in at least 4 independent experiments. Results were expressed as % of the maximal luciferase activity. […] Effective concentration (ECs) for a given compound, EC50 is defined as the concentration inducing 50% of its maximal effect. The EC50 values were calculated including the adjustment for the basal activity of the cell line.

Data set [1] can be described thus: Parallel artificial membrane permeability assay (PAMPA). As to conditions: for Conc. acceptor well / Conc. donor well: PAMPA after incubation. The method, then:
The plates were stored at – 20 °C until ready for use. Prior to use, the plate was prewarmed at room temperature for 30 min. Donor- and acceptor solutions were prepared as 12 mM phosphate buffered saline with a pH of 6.5 (donor) respectively 7.4 (acceptor). […] Then, 300 μL of each donor solution were filled into the donor (bottom) wells of the PAMPA plate. 200 μL of the acceptor medium were loaded into each well of the pre-coated receiver plate (top). […] The compound concentrations in the donor- and acceptor wells were then determined using a Jasco 2 HPLC system equipped with a ReproSil-Pur 120 ODS-3 column (5 μm, 50 × 2 mm) and UV detection. […] The injection volume was 40 μL and the flow rate 1 mL/min. […] For X15695, two calibration curves were prepared in the presence (donor well) and absence (acceptor well) of 10% ethanol. (Figure S6). The experiments were performed in triplicates.
Where cA(t) is the compound concentration in the acceptor well in μmol⋅l^−1, cD(t) is the compound concentration in the donor well in […], VA and VD is the volume of the acceptor respectively donor solution per well in mL, A is the membrane area in cm^2 and t the incubation time in seconds (Table S3).

Turning to `Clc1cc2c(cc1Cl)Oc1cc(Cl)c(Cl)cc1O2` [Dioxin, reference compound], the EC50 on AHR is 1.24 nM.
With `O=C1NC(=O)C(c2ccccc2)(c2ccccc2)N1` [Phenytoin], the Conc. acceptor well came to 7.15 µM in data set [1] (replica 1), 10.14 µM in data set [1] (replica 2) and 14.06 µM in data set [1] (replica 3). The Conc. donor well was found to be 112.02 µM in data set [1] (replica 1), 117.35 µM in data set [1] (replica 2) and 120.53 µM in data set [1] (replica 3).
Take `Cn1c(=O)c2c(ncn2C)n(C)c1=O` [Caffeine]: in data set [1] (PAMPA), the apparent permeability coefficient (Papp) at 5 h, 200 µM came out at 10.7 ×10⁻⁶ cm/s. For the same compound, the figures for the Conc. acceptor well in data set [1] (replica 1), in data set [1] (replica 2) and in data set [1] (replica 3) were 43.91 µM, 41.44 µM and 46.38 µM, respectively. In addition, the Conc. donor well is 160.76 µM in data set [1] (replica 1), 161.45 µM in data set [1] (replica 2) and 165.23 µM in data set [1] (replica 3).
